We go through six compounds from ChEMBL document CHEMBL4219183, “Novel purine benzimidazoles as antimicrobial agents by regulating ROS generation and targeting clinically resistant Staphylococcus aureus DNA groove” (Bioorg Med Chem Lett, 2018).

What is called MIC is the lowest concentration that inhibits growth of the organism. High values mean a need for much substance, low ones inhibition by little substance. What is called MIC80 is the lowest concentration that inhibits either 80% of growth or 80% of the strains tested, depending on the study. A high value points to weaker potency.

Molecules are shown by their SMILES. Values after ≈ are worked out from the molar mass of the structure shown.

What all share (type): functional
For assay [1], the system named is Staphylococcus aureus. The assay can be described thus: Antibacterial activity against methicillin-resistant Staphylococcus aureus N315 after 24 hrs by two fold serial dilution method. The settings on record: N315, 24 h.
Assay [2] concerns Enterococcus faecalis. The assay can be described thus: Antibacterial activity against Enterococcus faecalis after 24 hrs by two fold serial dilution method.
The subject of assay [3] is Staphylococcus aureus. The assay can be described thus: Antibacterial activity against Staphylococcus aureus after 24 hrs by two fold serial dilution method.
The subject of assay [4] is Staphylococcus aureus. In words: Antibacterial activity against Staphylococcus aureus ATCC 25923 after 24 hrs by two fold serial dilution method. The settings on record: ATCC 25923, 24 h.
Assay [5] relates to Staphylococcus aureus. The assay can be described thus: Antibacterial activity against Staphylococcus aureus ATCC 29213 after 24 hrs by two fold serial dilution method. The settings on record: ATCC 29213, 24 h.
For assay [6], the system named is Klebsiella pneumoniae. The assay can be described thus: Antibacterial activity against Klebsiella pneumoniae after 24 hrs by two fold serial dilution method.
Assay [7] relates to Escherichia coli. The assay can be described thus: Antibacterial activity against Escherichia coli after 24 hrs by two fold serial dilution method.
Assay [8] relates to Pseudomonas aeruginosa. The assay can be described thus: Antibacterial activity against Pseudomonas aeruginosa after 24 hrs by two fold serial dilution method.
Assay [9] deals with Acinetobacter baumannii. The assay can be described thus: Antibacterial activity against Acinetobacter baumannii after 24 hrs by two fold serial dilution method.
For assay [10], the system named is Pseudomonas aeruginosa. In words: Antibacterial activity against Pseudomonas aeruginosa ATCC 27853 after 24 hrs by two fold serial dilution method. The conditions noted are these: ATCC 27853, 24 h.
For assay [11], the system named is Escherichia coli. In words: Antibacterial activity against Escherichia coli ATCC 25922 after 24 hrs by two fold serial dilution method. The conditions noted are these: ATCC 25922, 24 h.
In assay [12] the test system is Candida albicans. The assay can be described thus: Antifungal activity against Candida albicans after 24 hrs by two fold serial dilution method.
For assay [13], the system named is Candida tropicalis. The assay can be described thus: Antifungal activity against Candida tropicalis after 24 hrs by two fold serial dilution method.
For assay [14], the system named is Aspergillus fumigatus. The assay can be described thus: Antifungal activity against Aspergillus fumigatus after 24 hrs by two fold serial dilution method.
Assay [15] concerns Candida albicans. The assay can be described thus: Antifungal activity against Candida albicans ATCC 90023 after 24 hrs by two fold serial dilution method. The conditions noted are these: ATCC 90023, 24 h.
The test system of assay [16] is Candida parapsilosis. The assay can be described thus: Antifungal activity against Candida parapsilosis ATCC 22019 after 24 hrs by two fold serial dilution method. The conditions noted are these: ATCC 22019, 24 h.

For `Clc1ccccc1Cn1c(Cn2cnc3c(N4CCOCC4)ncnc32)nc2ccccc21`, the MIC in [1] came out at 512 µg/mL (≈ 1110 µM); in assay [2], 256 µg/mL (≈ 557 µM); in assay [3] it was 256 µg/mL (≈ 557 µM); in assay [4], 256 µg/mL (≈ 557 µM); in assay [5], 32 µg/mL (≈ 69.6 µM); in [6], 64 µg/mL (≈ 139 µM). The MIC in assay [7] came out at 128 µg/mL (≈ 278 µM); in [8], 128 µg/mL (≈ 278 µM); in [9], 256 µg/mL (≈ 557 µM); in [10], 64 µg/mL (≈ 139 µM); in assay [11] it was 256 µg/mL (≈ 557 µM). Besides, the MIC80 in assay [12], in [13], in assay [14], in assay [15] and in assay [16] was 256 µg/mL (≈ 557 µM) throughout.

Consider `CCCCCCn1c(Cn2cnc3c(N4CCCCC4)ncnc32)nc2ccccc21`, for which the minimum inhibitory concentration (MIC) in [1] turned out to be 64 µg/mL (≈ 153 µM); in assay [2], 128 µg/mL (≈ 307 µM); in [3], 16 µg/mL (≈ 38.3 µM); in [4] it was 64 µg/mL (≈ 153 µM); in [5] it was 512 µg/mL (≈ 1230 µM); in assay [6] it was 64 µg/mL (≈ 153 µM). The MIC was found to be 256 µg/mL (≈ 613 µM) in [7]; 128 µg/mL (≈ 307 µM) in assay [8]; 64 µg/mL (≈ 153 µM) in assay [9]; 128 µg/mL (≈ 307 µM) in assay [10]; 16 µg/mL (≈ 38.3 µM) in [11]. Also, the MIC80 was found to be 64 µg/mL (≈ 153 µM) in [12]; 64 µg/mL (≈ 153 µM) in assay [13]; 128 µg/mL (≈ 307 µM) in [14]; 32 µg/mL (≈ 76.6 µM) in assay [15]; 64 µg/mL (≈ 153 µM) in assay [16].

`c1nc(N2CCCCC2)c2nc[nH]c2n1`: the minimum inhibitory concentration (MIC) in assay [1] worked out at 512 µg/mL (≈ 2520 µM); in assay [2], 256 µg/mL (≈ 1260 µM); in [3], 32 µg/mL (≈ 157 µM); in assay [4] it was 512 µg/mL (≈ 2520 µM); in [5], 512 µg/mL (≈ 2520 µM); in [6], 256 µg/mL (≈ 1260 µM). For the same compound, the MIC in assay [7] came to 256 µg/mL (≈ 1260 µM); in assay [8], 256 µg/mL (≈ 1260 µM); in assay [9] it was 128 µg/mL (≈ 630 µM); in [10], 64 µg/mL (≈ 315 µM); in [11] it was 256 µg/mL (≈ 1260 µM). In addition, the MIC80 turned out to be 128 µg/mL (≈ 630 µM) in [12]; 256 µg/mL (≈ 1260 µM) in assay [13]; 64 µg/mL (≈ 315 µM) in [14]; 128 µg/mL (≈ 630 µM) in assay [15]; 512 µg/mL (≈ 2520 µM) in [16].

On to `Clc1ccc(Cn2c(Cn3cnc4c(N5CCOCC5)ncnc43)nc3ccccc32)cc1`, for which the MIC worked out at 512 µg/mL (≈ 1110 µM) in [1]; 256 µg/mL (≈ 557 µM) in [2]; 512 µg/mL (≈ 1110 µM) in assay [3]; 128 µg/mL (≈ 278 µM) in assay [4]; 256 µg/mL (≈ 557 µM) in [5]; 256 µg/mL (≈ 557 µM) in [6]. For the same compound, the minimum inhibitory concentration (MIC) in assay [7] came out at 256 µg/mL (≈ 557 µM); in [8] it was 512 µg/mL (≈ 1110 µM); in assay [9] it was 512 µg/mL (≈ 1110 µM); in assay [10], 128 µg/mL (≈ 278 µM); in assay [11], 256 µg/mL (≈ 557 µM). For the same compound, the MIC80 in assay [12] worked out at 256 µg/mL (≈ 557 µM); in [13] it was 64 µg/mL (≈ 139 µM); in assay [14], 256 µg/mL (≈ 557 µM); in assay [15] it was 128 µg/mL (≈ 278 µM); in assay [16], 512 µg/mL (≈ 1110 µM).

`Fc1ccccc1Cn1c(Cn2cnc3c(N4CCOCC4)ncnc32)nc2ccccc21`: the MIC in assay [1] is 256 µg/mL (≈ 577 µM); in assay [2] it was 64 µg/mL (≈ 144 µM); in [3], 256 µg/mL (≈ 577 µM); in assay [4] it was 128 µg/mL (≈ 289 µM); in assay [5], 16 µg/mL (≈ 36.1 µM); in assay [6] it was 64 µg/mL (≈ 144 µM). In addition, the MIC in assay [7] worked out at 64 µg/mL (≈ 144 µM); in assay [8], 32 µg/mL (≈ 72.2 µM); in assay [9], 128 µg/mL (≈ 289 µM); in assay [10], 32 µg/mL (≈ 72.2 µM); in assay [11], 256 µg/mL (≈ 577 µM). The MIC80 in [12] was 256 µg/mL (≈ 577 µM); in [13], 256 µg/mL (≈ 577 µM); in assay [14], 64 µg/mL (≈ 144 µM); in [15] it was 64 µg/mL (≈ 144 µM); in assay [16], 512 µg/mL (≈ 1150 µM).

`Cc1nc2cc([N+](=O)[O-])ccc2n1CCn1cnc2c(N3CCOCC3)ncnc21`: the minimal inhibitory concentration (MIC) in [1] was 256 µg/mL (≈ 627 µM); in assay [2], 128 µg/mL (≈ 313 µM); in [3], 16 µg/mL (≈ 39.2 µM); in assay [4], 128 µg/mL (≈ 313 µM); in [5], 64 µg/mL (≈ 157 µM); in assay [6], 128 µg/mL (≈ 313 µM). The minimal inhibitory concentration (MIC) in [7] came to 128 µg/mL (≈ 313 µM); in [8], 64 µg/mL (≈ 157 µM); in assay [9], 32 µg/mL (≈ 78.4 µM); in assay [10], 64 µg/mL (≈ 157 µM); in assay [11] it was 16 µg/mL (≈ 39.2 µM). For the same compound, the MIC80 in assay [12] stood at 512 µg/mL (≈ 1250 µM); in assay [13], 64 µg/mL (≈ 157 µM); in assay [14], 128 µg/mL (≈ 313 µM); in [15], 256 µg/mL (≈ 627 µM); in assay [16], 256 µg/mL (≈ 627 µM).
